Earlier results on 18 substances are cited in PMC10814857, “Functional Classification and Interaction Selectivity Landscape of the Human SH3 Domain Superfamily” (Cells, 2024).

Where two headings read alike, the source gives them in different places.

In series [1] the target is SPTAN1 SH3 domain. Also on record: method as in ref [63] (a number printed in a supplementary file, which may have a reference list of its own: not looked up in the article's list). Conditions: SPTAN1, FL, Table S4; ref [63]; cited from earlier work.
Series [2] concerns the target LCK SH3 domain. Conditions: FL, Table S4, ref [74]; cited from earlier work.
In series [3] the target is STAM2 SH3 domain. The note with it: STAM2, FL, Table S4; ref [52]; cited from earlier work. The protocol:
(§1) page 6: […] […] […] PAK2 […] PXXXPR PXXXPR 1.05 ITC [34] TRSVI ITSN1-2 Synthetic […] Exceptional [W/F][R/W]xSx[A/ 53 ITC [29] peptide G][F/Y][L/V]xGP[ W/L] NCK1-2 N-WASP GP[…] … 147 HSQC [64] VA[…] 199 PLCG1 SOS1 AAPV[…] … 0.20mM SPR [75] AADS[…] 0.40mM AAES[…] 0.70mM AAIA[…] 0.28mM BAIAP2L1 EspFUR45 IPP[…] … 0.5 nM ITC [76] (IRTKS) 9 SORBS2- Synthetic […] Exceptional XRXGXAYLXYVX 38 ITC [29] 1 peptide Synthetic RL[…](L/P) ...

The target of series [4] is ITSN1-2 SH3 domain. The note with it: ITSN1-2, ITC, Table S4; ref [29]; cited from earlier work. The method, then: as §1
The target in series [5] is NCK1-3 SH3 domain. Conditions: NCK1-3, HSQC, Table S4; ref [64]; cited from earlier work. The method, then:
(§2) page 6: […][…] […] PAK2 […] PXXXPR PXXXPR 1.05 ITC [34] TRSVI ITSN1-2 Synthetic […] Exceptional [W/F][R/W]xSx[A/ 53 ITC [29] peptide G][F/Y][L/V]xGP[ W/L] NCK1-2 N-WASP GP[…] … 147 HSQC [64] VA[…] 199 PLCG1 SOS1 AAPV[…] … 0.20mM SPR [75] AADS[…] 0.40mM AAES[…] 0.70mM AAIA[…] 0.28mM BAIAP2L1 EspFUR45 IPP[…] … 0.5 nM ITC [76] (IRTKS) 9 SORBS2- Synthetic […] Exceptional XRXGXAYLXYVX 38 ITC [29] 1 peptide Synthetic RL[…](L/P) ...

In series [6] the target is NCK1-2 SH3 domain. The note with it: NCK1-2, HSQC, Table S4; ref [64]; cited from earlier work. The method, then: as §2
Series [7] has as its target NCK1-1 SH3 domain. Conditions: NCK1-1, HSQC, Table S4; ref [64]; cited from earlier work.
For series [8], the target named is BAIAP2L1 (IRTKS) SH3 domain. Conditions: ITC, Table S4, ref [76]; cited from earlier work. The method, then:
as §2

The target in series [9] is STAC2 SH3 domain. The note with it: STAC2, ITC, Table S4; ref [59]; cited from earlier work. The protocol: as §1
Series [10] deals with STAC1 SH3 domain. Conditions: STAC1, ITC, Table S4; ref [59]; cited from earlier work. The protocol:
as §1

The target in series [11] is SH3PXD2B-1/2 SH3 domains. Also on record: method as in ref [68] (a number printed in a supplementary file, which may have a reference list of its own: not looked up in the article's list). Conditions: SH3PXD2B-1/2, MST, Table S4; ref [68]; cited from earlier work.
For series [12], the target named is SH3PXD2B-1/2 SH3 domains. Also on record: method as in ref [68] (a number printed in a supplementary file, which may have a reference list of its own: not looked up in the article's list). The note with it: SH3PXD2B-1/2, FL, Table S4; ref [68]; cited from earlier work.
The target in series [13] is CD2AP-1 (CMS) SH3 domain. The note with it: SPR, Table S4, ref [50, 82]; cited from earlier work. The source says:
page 7: […] E CD2AP-1 CD2 […] PX(P/A)XXR PXXXPR 100 SPR [50, (CMS) G 82] SH3KBP1- 1 (CIN85) 1 The underlined residues in the second column represent motifs associated with the published consensus PRMs, while the residues highlighted in green represent the proposed consensus PRM identified in the current study. 2 CD: Circular Dichroism Spectroscopy FL: fluorescence-based titrations; HSQC: Heteronuclear Single Quantum Coherence; ITC: Isothermal titration calorimetry; MST: microscale thermophoresis 7

Series [14] deals with HCK SH3 domain. Conditions: SPR, Table S4, ref [72]; cited from earlier work. A general note: In SPR one partner is held on a chip, and binding of the other changes the refractive index at the surface.
In series [15] the target is FYN SH3 domain. The note with it: SPR, Table S4, ref [72]; cited from earlier work.
Series [16] concerns the target PACSIN1 SH3 domain. Also on record: method as in ref [61] (a number printed in a supplementary file, which may have a reference list of its own: not looked up in the article's list). The note with it: PACSIN1, HSQC, Table S4; ref [61]; cited from earlier work.
The target of series [17] is PACSIN2 SH3 domain. Also on record: method as in ref [61] (a number printed in a supplementary file, which may have a reference list of its own: not looked up in the article's list). The note with it: PACSIN2, HSQC, Table S4; ref [61]; cited from earlier work.
The target in series [18] is PACSIN3 SH3 domain. Set-up: method as in ref [61] (a number printed in a supplementary file, which may have a reference list of its own: not looked up in the article's list). The note with it: PACSIN3, HSQC, Table S4; ref [61]; cited from earlier work.
In series [19] the target is AMPH SH3 domain. The note with it: g-radiation, Table S4, ref [80]; cited from earlier work. The protocol:
as §1

For series [20], the target named is FYN SH3 domain. Also on record: method as in ref [20] (a number printed in a supplementary file, which may have a reference list of its own: not looked up in the article's list). The note with it: CD, Table S4, ref [20]; cited from earlier work.
Series [21] concerns the target FYN SH3 domain. Also on record: method as in ref [20] (a number printed in a supplementary file, which may have a reference list of its own: not looked up in the article's list). The note with it: NMR, Table S4, ref [20]; cited from earlier work.
Series [22] has as its target FYN SH3 domain. Set-up: method as in ref [20] (a number printed in a supplementary file, which may have a reference list of its own: not looked up in the article's list). The note with it: ITC, Table S4, ref [20]; cited from earlier work.
For series [23], the target named is EPS8L1 SH3 domain. Set-up: method as in ref [7] (a number printed in a supplementary file, which may have a reference list of its own: not looked up in the article's list). The note with it: EPS8L1, ITC, Table S4; ref [7]; cited from earlier work.
Series [24] addresses CRK-1 SH3 domain. Set-up: method as in ref [70] (a number printed in a supplementary file, which may have a reference list of its own: not looked up in the article's list). The note with it: CRK-1, ITC, Table S4; ref [70]; cited from earlier work.
For series [25], the target named is SNX9 SH3 domain. The note with it: cited from earlier work.
In series [26] the target is p85A SH3 domain. Also on record: method as in ref [62] (a number printed in a supplementary file, which may have a reference list of its own: not looked up in the article's list). Conditions: FL, Table S4, ref [62]; cited from earlier work.

Regarding “ASYPPVPPP [published Peptide41 (SPTAN1 ligand)]”, the Kd (in general, a measure of binding affinity in units of concentration) in series [1] is 160 µM.
In the case of “ATLDPGMPTPPLPPRPANLG [published Tip peptide]”, the dissociation constant Kd in series [2] is 16.8 µM.
Take TPMVNRENKPP [published UBPY peptide]: the Kd in series [3] is 27 µM.
On to “WRDSSGYVMGPW [published synthetic peptide (ITSN1-2 ligand)]”, for which the Kd in series [4] was 53 µM.
On to VAVPPPPPNRMY [published N-WASP peptide], for which the dissociation constant (Kd) in [5] was 1 µM; in [6], 199 µM.
On to GPPPPPARGRGA [published N-WASP peptide], for which the Kd in series [6] is 147 µM; in [7] it was above 1000 µM.
On to “IPPAPNWPAPTPP [published peptide EspFUR45]”, for which the dissociation constant (Kd) in series [8] was 0.0005 µM.
“NVNEVKDPYPSADFPGDDEEDEPEIPLSPRPRPLAELQLKEKAVPIPE [published CaV1.1 peptide]”: the Kd in series [9] is 1.85 µM; in [10] it was 0.78 µM.
Turning to “GSHMGDAKQRSPKMRQRPPPRRDMTIPRGLNLPKPPIPPQVE [published SH3PXD2B peptide]”, the dissociation constant Kd was 15 µM in series [11] and 11 µM in series [12].
Take “QKGPPLPRPRVQPKPPHG [published CD2 peptide]”: the Kd in [13] is 100 µM.
With PVRPQVPLRPMT [published Nef peptide], the Kd in [14] was 91 µM; in series [15], 202 µM.
As for “TKGPAPNPPPVLKV [published TRPV4 peptide]”, the dissociation constant Kd in series [16] was 51.6 µM; in series [17] it was 12.7 µM; in series [18], 68.6 µM.
For PSRPNR [published Dynamin-I peptide], in series [19], the equilibrium dissociation constant (Kd) was 0.19 µM.
Consider PPRPLPVAPGSSKT [published peptide P2L], for which the Kd in series [20] is 28 µM; in [21] it was 50 µM; in series [22] it was 16 µM.
Consider PPVPNPDYEPIR [published CD3ε peptide], for which the dissociation constant (Kd) in series [23] is 24 µM.
Regarding “DNSPPPALPPKKRQSAPS [published C3G peptide]”, the Kd in [24] is around 2 µM.
Regarding AERLIPRRPAPPVPVPARIPSPR, the dissociation constant (Kd) in [25] was 0.3 µM.
As for “RKLPPRPSK [published synthetic peptide (p85A ligand)]”, in series [26], the Kd was 9.1 µM.
